This data set relates to Dkk1-LRP5-TCF-Luciferase. The data set is described as follows: Functional Dkk1-LRP5-TCF-Luciferase Assay in U2OS Cells. To be noted: for fold induction at 2 µM / fold induction at 20 µM / EC50: Homo sapiens, U2OS; for fold induction at 2 µM: read-out: B = TCF ACTIVITY/DMSO CONTROL Fold induction @ 2.0 uM, 2.0 uM compound; for fold induction at 20 µM: read-out: C = TCF ACTIVITY/DMSO CONTROL Fold induction @ 20.0 uM, 20.0 uM compound; for A = MAX FOLD Induction/DMSO CONTROL: maximum fold induction over DMSO control.

For orientation: EC50 means the concentration that produces a half-maximal response.

Regarding `NC(=O)N1CCC(CNc2nccc(-c3ccc4ccccc4c3)n2)CC1` [4-({[4-(2-naphthyl)pyrimidin-2-yl]amino}methyl)piperidine-1-carboxamide], the fold induction at 2 µM was 0.88 and the fold induction at 20 µM is 1.58.

In the case of `O=C(NCC1CN(c2nccc(-c3ccc4ccccc4c3)n2)C1)C(F)(F)F` [2,2,2-trifluoro-N-({1-[4-(2-naphthyl)pyrimidin-2-yl]azetidin-3-yl}methyl)acetamide], the fold induction at 2 µM is 1.77.

As for `NC(=O)C1CCCN(c2nccc(-c3ccc4ccccc4c3)n2)C1` (centres unmarked) [1-[4-(2-naphthyl)pyrimidin-2-yl]piperidine-3-carboxamide], the EC50 came to 1260 nM, the fold induction at 2 µM is 2.17, the fold induction at 20 µM turned out to be 2.7 and the “A = MAX FOLD Induction/DMSO CONTROL” value is reported as 2.230 fold.

`NCC1CCN(C(=O)c2nccc(-c3ccc4ccccc4c3)n2)CC1` [1-(1-{[4-(2-naphthyl)pyrimidin-2-yl]carbonyl}piperidin-4-yl)methanamine]: the fold induction at 2 µM came out at 0.46, the fold induction at 20 µM is 1.42 and the “A = MAX FOLD Induction/DMSO CONTROL” value is listed as 1.380 fold.

Compound `O[C@@H]1CCCN([C@@H]2CCN(c3nccc(-c4ccc5ccccc5c4)n3)C2)C1` [(3R)-1-{(3R)-1-[4-(2-naphthyl)pyrimidin-2-yl]pyrrolidin-3-yl}piperidin-3-ol] yielded a concentration giving a half-maximal response (EC50) of 2200 nM. That is a single-digit micromolar value.

As to `CN(C)C[C@H]1CCN(c2nccc(-c3ccc4ccccc4c3)n2)C1` [N,N-dimethyl-1-{(3R)-1-[4-(2-naphthyl)pyrimidin-2-yl]pyrrolidin-3-yl}methanamine], the concentration for a half-maximal effect (EC50) is 1020 nM, the fold induction at 2 µM was determined as 2.83, the fold induction at 20 µM stood at 0.01 and the “A = MAX FOLD Induction/DMSO CONTROL” value is 3.620 fold.

`CN(c1nccc(-c2ccc3ccccc3c2)n1)C1CCN(C(=O)N2CCCC2)CC1` [N-methyl-4-(2-naphthyl)-N-[1-(pyrrolidin-1-ylcarbonyl)piperidin-4-yl]pyrimidin-2-amine]: the fold induction at 2 µM was 1.81.

On to `NC(=S)C1CCN(c2nccc(-c3ccc4ccccc4c3)n2)CC1` [1-[4-(2-naphthyl)pyrimidin-2-yl]piperidine-4-carbothioamide], for which the fold induction at 2 µM is 1.74, the fold induction at 20 µM is 1.99 and the “A = MAX FOLD Induction/DMSO CONTROL” value worked out at 2.070 fold.

Regarding `CCN1CCC(CNc2nccc(-c3ccc4ccccc4c3)n2)CC1` [N-[(1-ethylpiperidin-4-yl)methyl]-4-(2-naphthyl)pyrimidin-2-amine], the EC50 turned out to be 3940 nM, the fold induction at 2 µM was 1.5, the fold induction at 20 µM worked out at 0.908 and the “A = MAX FOLD Induction/DMSO CONTROL” value amounted to 3.450 fold.

In the case of `c1ccc2cc(-c3ccnc(N4CC[C@@H](N5CCN6CCCCC6C5)C4)n3)ccc2c1` (stereo partly drawn) [2-{(3R)-1-[4-(2-naphthyl)pyrimidin-2-yl]pyrrolidin-3-yl}octahydro-2H-pyrido[1,2-a]pyrazine], the fold induction at 2 µM was determined as 1.3.

Turning to `CC(=O)N(C)CCN(C)[C@@H]1CCN(c2nccc(-c3ccc4ccccc4c3)n2)C1` [N-methyl-N-[2-(methyl{(3R)-1-[4-(2-naphthyl)pyrimidin-2-yl]pyrrolidin-3-yl}amino)ethyl]acetamide], the fold induction at 20 µM came out at 4.4.

For `CNCCN(C)[C@@H]1CCN(c2nccc(-c3ccc4ccccc4c3)n2)C1` [N,N′-dimethyl-N-{(3R)-1-[4-(2-naphthyl)pyrimidin-2-yl]pyrrolidin-3-yl}ethane-1,2-diamine], the fold induction at 2 µM was 1.2.

On to `CCN(CC)C(=O)N1CCCN(c2nccc(-c3ccc4ccccc4c3)n2)CC1` [N,N-diethyl-4-[4-(2-naphthyl)pyrimidin-2-yl]-1,4-diazepane-1-carboxamide], for which the EC50 amounted to 30000 nM, the fold induction at 20 µM stood at 1.49 and the “A = MAX FOLD Induction/DMSO CONTROL” value amounted to 3.070 fold.

For `O=C(NCC[C@H]1CCCN1c1nccc(-c2ccc3ccccc3c2)n1)C(F)(F)F` [2,2,2-trifluoro-N-(2-{(2R)-1-[4-(2-naphthyl)pyrimidin-2-yl]pyrrolidin-2-yl}ethyl)acetamide], the midpoint of the response, the EC50, lay at 1190 nM; the fold induction at 2 µM was 0.84; the fold induction at 20 µM worked out at 2.3; the “A = MAX FOLD Induction/DMSO CONTROL” value is reported as 1.535 fold.

As to `NCC1CCN(c2nccc(-c3ccc4cc(-c5cccs5)ccc4c3)n2)CC1` [1-(1-{4-[6-(2-thienyl)-2-naphthyl]pyrimidin-2-yl}piperidin-4-yl)methanamine], the fold induction at 2 µM was 1.21 and the fold induction at 20 µM is 0.03.

Regarding `CN(C)CCCN1CCN(c2nccc(-c3ccc4ccccc4c3)n2)CC1` [N,N-dimethyl-3-{4-[4-(2-naphthyl)pyrimidin-2-yl]piperazin-1-yl}propan-1-amine], the fold induction at 2 µM came to 1.87.

As for `O=CN1CCCN(c2nccc(-c3ccc4ccccc4c3)n2)CC1` [4-[4-(2-naphthyl)pyrimidin-2-yl]-1,4-diazepane-1-carbaldehyde], the fold induction at 2 µM turned out to be 0.87 and the fold induction at 20 µM was 1.88.

With `COC(=O)N1CCC(N(C)c2nccc(-c3ccc4ccccc4c3)n2)CC1` [methyl 4-{methyl[4-(2-naphthyl)pyrimidin-2-yl]amino}piperidine-1-carboxylate], the fold induction at 2 µM came to 1.43 and the fold induction at 20 µM was found to be 1.47.

In the case of `O=C(NCCC1CCN(c2nccc(-c3ccc4ccccc4c3)n2)CC1)OCc1ccccc1` [benzyl (2-{1-[4-(2-naphthyl)pyrimidin-2-yl]piperidin-4-yl}ethyl)carbamate], the fold induction at 2 µM was found to be 0.86 and the fold induction at 20 µM is 1.49.

With `O=C1CCCCN1C[C@H]1CCN(c2nccc(-c3ccc4ccccc4c3)n2)C1` [1-({(3S)-1-[4-(2-naphthyl)pyrimidin-2-yl]pyrrolidin-3-yl}methyl)piperidin-2-one], the fold induction at 2 µM is 1.07, the fold induction at 20 µM worked out at 2.45 and the “A = MAX FOLD Induction/DMSO CONTROL” value is on record as 2.000 fold.

Take `N=C(N)OC(=N)NCCN1CCN(c2nccc(-c3ccc4ccccc4c3)n2)CC1` [N-(2-{4-[4-(2-naphthyl)pyrimidin-2-yl]piperazin-1-yl}ethyl)dicarbonimidic diamide]: the fold induction at 2 µM was 1.22 and the fold induction at 20 µM was found to be 0.49.

With `CCNC(=O)N1CC(CNc2nccc(-c3ccc4ccccc4c3)n2)C1` [N-ethyl-3-({[4-(2-naphthyl)pyrimidin-2-yl]amino}methyl)azetidine-1-carboxamide], the fold induction at 2 µM worked out at 1.57.

`CC(C)(C)NCC1CCN(c2nccc(-c3ccc4ccccc4c3)n2)CC1` [2-methyl-N-({1-[4-(2-naphthyl)pyrimidin-2-yl]piperidin-4-yl}methyl)propan-2-amine]: a half-maximal response (EC50) required 10600 nM, the fold induction at 2 µM worked out at 1.49, the fold induction at 20 µM was 5.76 and the “A = MAX FOLD Induction/DMSO CONTROL” value was found to be 3.890 fold.

Turning to `CC(=O)N1CC(CNc2nccc(-c3ccc4ccccc4c3)n2)C1` [N-[(1-acetylazetidin-3-yl)methyl]-4-(2-naphthyl)pyrimidin-2-amine], the fold induction at 2 µM amounted to 1.8.

`NCC1CC2CCC(C1)N2c1nccc(-c2ccc3ccccc3c2)n1` (centres unmarked) [1-{8-[4-(2-naphthyl)pyrimidin-2-yl]-8-azabicyclo[3.2.1]oct-3-yl}methanamine]: the midpoint of the response, the EC50, lay at 550 nM and the fold induction at 2 µM was 1.5.

As for `CCNC(=O)N[C@H]1CCN(c2nccc(-c3ccc4ccccc4c3)n2)C1` [N-ethyl-N′-{(3S)-1-[4-(2-naphthyl)pyrimidin-2-yl]pyrrolidin-3-yl}urea], the fold induction at 2 µM came out at 1.03 and the fold induction at 20 µM amounted to 0.6.

Regarding `CCOC(=O)N1CC[C@@H](Nc2nccc(-c3ccc4ccccc4c3)n2)C1` [ethyl (3R)-3-{[4-(2-naphthyl)pyrimidin-2-yl]amino}pyrrolidine-1-carboxylate], the fold induction at 20 µM was determined as 1.3.

Turning to `CS(=O)(=O)N[C@H]1CCN(c2nccc(-c3ccc4ccccc4c3)n2)C1` [N-{(3S)-1-[4-(2-naphthyl)pyrimidin-2-yl]pyrrolidin-3-yl}methanesulfonamide], the EC50 stood at 13800 nM, the fold induction at 2 µM worked out at 0.68, the fold induction at 20 µM was 1.56 and the “A = MAX FOLD Induction/DMSO CONTROL” value is reported as 1.420 fold.

For `NC[C@H]1C[C@H]2C[C@@H]1CN2c1nccc(-c2ccc3ccccc3c2)n1` [1-{(1S,4S,5S)-2-[4-(2-naphthyl)pyrimidin-2-yl]-2-azabicyclo[2.2.1]hept-5-yl}methanamine], the fold induction at 2 µM is 1.2.

Regarding `NCC1CCN(c2cc(-c3ccc4ccccc4c3)ncn2)CC1` [1-{1-[6-(2-naphthyl)pyrimidin-4-yl]piperidin-4-yl}methanamine], the EC50 stood at 1590 nM, the fold induction at 2 µM was determined as 2.79, the fold induction at 20 µM is 1 and the “A = MAX FOLD Induction/DMSO CONTROL” value is reported as 3.226 fold.

Regarding `OC1CCCN([C@H]2CCN(c3nccc(-c4ccc5ccccc5c4)n3)C2)C1` (stereo partly drawn) [1-{(3S)-1-[4-(2-naphthyl)pyrimidin-2-yl]pyrrolidin-3-yl}piperidin-3-ol], the EC50 amounted to 3550 nM, the fold induction at 2 µM was 2.48, the fold induction at 20 µM came to 0.13 and the “A = MAX FOLD Induction/DMSO CONTROL” value was 6.735 fold.

In the case of `CC(C)NC(=O)N[C@H]1CCN(c2nccc(-c3ccc4ccccc4c3)n2)C1` [N-isopropyl-N′-{(3S)-1-[4-(2-naphthyl)pyrimidin-2-yl]pyrrolidin-3-yl}urea], the fold induction at 2 µM was 1.12 and the fold induction at 20 µM is 0.79.

With `c1ccc2cc(-c3ccnc(N4CCC(CN5CCOCC5)CC4)n3)ccc2c1` [4-({1-[4-(2-naphthyl)pyrimidin-2-yl]piperidin-4-yl}methyl)morpholine], the EC50 worked out at 4980 nM, the fold induction at 2 µM was 0.76, the fold induction at 20 µM amounted to 1.96 and the “A = MAX FOLD Induction/DMSO CONTROL” value is 2.380 fold.

The record behind these values is patent publication US20090054392A1, “NAPHTHYLPYRIMIDINE, NAPHTHYLPYRAZINE AND NAPHTHYLPYRIDAZINE ANALOGS AND THEIR USE AS AGONISTS OF THE WNT-BETA-CATENIN CELLULAR MESSAGING SYSTEM” (Wyeth, priority 2007, published 2009).
